Experimental findings from patent publication EP4796530A1 (Biocells (Beijing) Biotech Co., Ltd., priority 2023, dated 2025) are described below.

Series [1] deals with T1, NLRP3 (Mus musculus, UniProt Q8R4B8). The series can be described thus: Inhibition of APOE peptide-induced NLRP3 activation in J774A.1 cells, IL-1β release. Particulars: J774.A1, 10 µM compound, 30 µg/mL APOE peptide. More on the design: The mouse macrophage cell line J774A.1 was used, and LPS was used as the first signal; host or cells: J774A.1 mouse monocyte-macrophage cell line. In kind it is cell-based. Here is the method:
J774A.1 cells were plated in a 48-well plate at a density of 1.0×10^6 cells/mL, with 300 µL per well. Subsequently, NLRP3 was activated by APOE peptide. The cell culture medium comprises: DMEM (brand: Gibco, Cat. No.: C12430500) + 10% fetal bovine serum (brand: Gibco, Cat. No.: 10099-141) + 1% sodium pyruvate (brand: Gibco, Cat. No.: 11360-070) + 1% penicillin-streptomycin solution (brand: Solarbio, Cat. No.: P1400). The J774A.1 mouse monocyte-macrophage cell line was purchased from the Cell Resource Center of the Institute of Basic Medical Sciences of Chinese Academy of Medical Sciences (Resource No. 1101MOU-PUMC000222). APOE2/3 peptide 1-151 was obtained through recombinant protein expression and purification by Biocells (Beijing) Biotech Co., Ltd. The procedures were as follows: the sequence (SEQ ID NO: 1) shown below was inserted into the pET-28A plasmid and transformed into BL-21(DE3) expression strain; the expression of target protein was induced with IPTG at a low temperature; after collecting the bacteria via centrifugation, ultrasonic disruption was performed; and after centrifugation, the supernatant was purified by nickel ion affinity chromatography (AKTA pure), and then the product was concentrated by ultrafiltration and identified by BCA+protein electrophoresis. Sequence: [formula]
Experimental groups: a negative control group, an APOE treatment control group, and an example compound experimental group.
After the plated J774A.1 cells adhering to the plate, the culture medium was replaced. The culture medium of the APOE treatment control group was replaced with cell culture medium containing 30 µg/mL APOE peptide, the culture medium of the example compound experimental group was replaced with culture medium containing 30 µg/mL APOE peptide combined with the compounds, and the negative control group received cell culture medium. Then, all the groups were incubated overnight. 18 h later, the cell supernatants were collected for IL-1β detection.
Activation of NLRP3 by APOE peptide will result in release of mature IL-1β, and the release can be inhibited by NLRP3 inhibitors. Therefore, the relative change in the amount of IL-1β release may directly reflect NLRP3 inhibitory effect.
In this experimental example, effective inhibition refers to a reduction of 70% or more in the release amount, compared with the release amount of the positive control minus the negative control.

Series [2] addresses T1, NLRP3. The series can be described thus: Inhibition of canonical NLRP3 activation (LPS+ATP/Nig) in J774A.1 cells, IL-1β release by ELISA, single concentration. Particulars: J774.A1, 1 µM compound, LPS + 5 mM ATP or 10 µM Nig, compared with the positive control, read-out: inhibition of IL-1β release. On the set-up: The mouse macrophage cell line J774A.1 was used, and LPS was used as the first signal; host or cells: J774A.1 mouse monocyte-macrophage cell line. In kind it is cell-based.

Series [3] in a line: Mouse pharmacokinetics after intravenous administration (plasma and brain, LC-MS). Type of series: in vivo. Particulars: C57 mice, intravenous 5 mg/kg; for concentration at 120 min: brain after cardiac perfusion, read-out: brain drug concentration at 120 min; for half-life / AUC: plasma; for AUC: read-out: area under the curve (AUC) from 1 to 120 min. The procedure: C57 mice were administered intravenously, at a dosage concentration of 5 mg/kg in each group. Retro-orbital blood collection was performed on the mice at 1 min, 30 min, 1 h, and 2 h post-dosing. The collected blood was centrifuged at 3000 rpm for 10 min at 4 °C to obtain plasma. Acetonitrile was added at a 1:3 volume ratio of plasma: acetonitrile to precipitate proteins. After centrifugation, the supernatant was collected and filtered. The concentration of the compound was detected using LC-MS (Agilent 1260-G6125, SIM mode). In addition, 2 h after drug injection, the mice were subjected to cardiac perfusion and then their brains were harvested. Following tissue homogenization and centrifugation, the supernatant was collected. Acetonitrile was added at a 1:3 volume ratio of supernatant: acetonitrile to precipitate proteins. After centrifugation, the supernatant was collected and filtered. The concentration of the compound was detected using LC-MS (Agilent 1260-G6125, SIM mode).
Experimental groups: a vehicle control group, and a dosing group.

T1 sequence (Q8R4B8 whole entry): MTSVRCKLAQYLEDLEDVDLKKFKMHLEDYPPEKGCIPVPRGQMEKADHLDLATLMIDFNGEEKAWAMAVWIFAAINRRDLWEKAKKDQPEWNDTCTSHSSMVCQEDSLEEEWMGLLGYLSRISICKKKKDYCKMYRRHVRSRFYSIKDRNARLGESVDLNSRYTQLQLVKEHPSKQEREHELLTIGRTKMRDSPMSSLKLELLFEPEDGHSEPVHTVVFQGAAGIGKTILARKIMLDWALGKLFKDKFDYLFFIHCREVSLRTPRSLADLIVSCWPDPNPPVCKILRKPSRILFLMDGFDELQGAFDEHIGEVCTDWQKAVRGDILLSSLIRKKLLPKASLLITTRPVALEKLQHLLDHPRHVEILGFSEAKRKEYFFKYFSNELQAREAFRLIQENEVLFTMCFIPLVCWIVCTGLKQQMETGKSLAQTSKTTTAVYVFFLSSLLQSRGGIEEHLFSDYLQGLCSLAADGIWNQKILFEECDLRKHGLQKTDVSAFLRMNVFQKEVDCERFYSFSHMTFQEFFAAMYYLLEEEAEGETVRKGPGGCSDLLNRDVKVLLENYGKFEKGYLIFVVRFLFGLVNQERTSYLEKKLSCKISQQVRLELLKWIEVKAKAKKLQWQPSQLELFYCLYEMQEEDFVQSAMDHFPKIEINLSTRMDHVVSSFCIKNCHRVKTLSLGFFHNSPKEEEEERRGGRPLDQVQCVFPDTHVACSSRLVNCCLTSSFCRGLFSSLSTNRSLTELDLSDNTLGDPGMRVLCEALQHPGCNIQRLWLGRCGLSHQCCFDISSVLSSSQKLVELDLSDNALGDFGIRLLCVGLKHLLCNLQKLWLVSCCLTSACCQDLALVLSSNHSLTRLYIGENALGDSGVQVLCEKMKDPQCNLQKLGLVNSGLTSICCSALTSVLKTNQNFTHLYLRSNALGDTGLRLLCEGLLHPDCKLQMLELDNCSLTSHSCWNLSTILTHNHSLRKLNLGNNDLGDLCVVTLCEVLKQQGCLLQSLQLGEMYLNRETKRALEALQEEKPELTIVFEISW

By inhibition is commonly meant the drop in the measured response relative to a control, in per cent. By half-life is commonly meant the time in which the quantity being followed falls by half. A high value points to slow loss. One may read the AUC as concentration integrated over time. Turning to `CN(C)Cc1cccc(S(=O)(=O)NC(=O)Nc2c3c(cc4c2CCC4)CCC3)c1N` [Example 19, 2-amino-3-((dimethylamino)methyl)-N-((1,2,3,5,6,7-hexahydro-s-indacen-4-yl)carbamoyl)benzenesulfonamide], in series [1], the inhibition at 10 µM is ≥ 70%. Besides, the inhibition at 1 µM in series [2] was > 80%. Besides, in series [3], the concentration at 120 min turned out to be 242 ng/mL, the half-life came out at 2.32 h and the AUC was found to be 14700 ng·h/mL.
In the same order, the values of `COc1ccc(S(=O)(=O)NC(=O)Nc2c3c(cc4c2CCC4)CCC3)cc1CN(C)C` [Example 3, 3-((dimethylamino)methyl)-N-((1,2,3,5,6,7-hexahydro-s-indacen-4-yl)carbamoyl)-4-methoxybenzenesulfonamide] are ≥ 70%, > 80%, 35500 ng/mL, 1.05 h and 257000 ng·h/mL.
In the same order, the values of `CN(C)Cc1cc(S(=O)(=O)NC(=O)Nc2c3c(cc4c2CCC4)CCC3)ccc1O` [Example 5, 3-((dimethylamino)methyl)-N-((1,2,3,5,6,7-hexahydro-s-indacen-4-yl)carbamoyl)-4-hydroxybenzenesulfonamide] are ≥ 70%, > 80%, 3870 ng/mL, 2.3 h and 67400 ng·h/mL.
